Reference: ChEMBL document CHEMBL3091428, “Synthesis and initial biological evaluation of substituted 1-phenylamino-2-thio-4,5-dimethyl-1H-imidazole derivatives” (Bioorg Med Chem Lett, 2013)
≈ marks a conversion by molar mass, not a printed value.

Key:
Type in all cases: functional
Enterococcus faecalis [1] = experiment: Antimicrobial activity against Enterococcus faecalis ATCC 51299 after 24 hrs by broth microdilution method; settings: ATCC 51299, 24 h
Listeria monocytogenes = experiment: Antimicrobial activity against Listeria monocytogenes ATCC 19115 after 24 hrs by broth microdilution method; settings: ATCC 19115, 24 h
Staphylococcus aureus = experiment: Antimicrobial activity against Staphylococcus aureus ATCC 25923 after 24 hrs by broth microdilution method; settings: ATCC 25923, 24 h
Pseudomonas aeruginosa = experiment: Antimicrobial activity against Pseudomonas aeruginosa ATCC 27853 after 24 hrs by broth microdilution method; settings: ATCC 27853, 24 h
Escherichia coli [2] = experiment: Antimicrobial activity against Escherichia coli ATCC 25922 after 24 hrs by broth microdilution method; settings: ATCC 25922, 24 h
Escherichia coli [3] = experiment: Antimicrobial activity against Escherichia coli ATCC 35218 after 24 hrs by broth microdilution method; settings: ATCC 35218, 24 h
Candida albicans = experiment: Antimicrobial activity against Candida albicans ATCC 90028 after 24 hrs by broth microdilution method; settings: ATCC 90028, 24 h
Enterococcus faecalis [4] = experiment: Antimicrobial activity against Enterococcus faecalis ATCC 29212 after 24 hrs by broth microdilution method; settings: ATCC 29212, 24 h
Klebsiella pneumoniae = experiment: Antimicrobial activity against Klebsiella pneumoniae ATCC 13883 after 24 hrs by broth microdilution method; settings: ATCC 13883, 24 h
Nakaseomyces glabratus = experiment: Antimicrobial activity against Candida glabrata ATCC 90030 after 24 hrs by broth microdilution method; settings: ATCC 90030, 24 h
Pichia kudriavzevii = experiment: Antimicrobial activity against Candida krusei ATCC 6258 after 24 hrs by broth microdilution method; settings: ATCC 6258, 24 h

SMILES	MIC (Enterococcus faecalis [1]) [µg/mL]	MIC (Listeria monocytogenes) [µg/mL]	MIC (Staphylococcus aureus) [µg/mL]	MIC (Pseudomonas aeruginosa) [µg/mL]	MIC (Escherichia coli [2]) [µg/mL]	MIC (Escherichia coli [3]) [µg/mL]	MIC (Candida albicans) [µg/mL]	MIC (Enterococcus faecalis [4]) [µg/mL]	MIC (Klebsiella pneumoniae) [µg/mL]	MIC (Nakaseomyces glabratus) [µg/mL]	MIC (Pichia kudriavzevii) [µg/mL]
COc1ccc(C(=O)CSc2nc(C)c(C)n2Nc2ccc(Cl)cc2)cc1OC	800 (≈ 1850 µM)	100 (≈ 232 µM)	800 (≈ 1850 µM)	400 (≈ 926 µM)	400 (≈ 926 µM)	800 (≈ 1850 µM)	400 (≈ 926 µM)	100 (≈ 232 µM)	800 (≈ 1850 µM)	400 (≈ 926 µM)	400 (≈ 926 µM)
Cc1nc(SCC(=O)c2cccc(F)c2)n(Nc2ccc(Cl)cc2)c1C	800 (≈ 2050 µM)	200 (≈ 513 µM)	800 (≈ 2050 µM)	400 (≈ 1030 µM)	400 (≈ 1030 µM)	800 (≈ 2050 µM)	400 (≈ 1030 µM)	100 (≈ 256 µM)	800 (≈ 2050 µM)	400 (≈ 1030 µM)	400 (≈ 1030 µM)
Cc1nc(SCC(=O)c2ccc(F)cc2)n(Nc2ccc(Cl)cc2)c1C	800 (≈ 2050 µM)	3200 (≈ 8210 µM)	800 (≈ 2050 µM)	1600 (≈ 4100 µM)	1600 (≈ 4100 µM)	1600 (≈ 4100 µM)	800 (≈ 2050 µM)	1600 (≈ 4100 µM)	800 (≈ 2050 µM)	1600 (≈ 4100 µM)	800 (≈ 2050 µM)
Cc1nc(SCC(=O)c2cccc(Cl)c2)n(Nc2ccc(Cl)cc2)c1C	800 (≈ 1970 µM)	800 (≈ 1970 µM)	800 (≈ 1970 µM)	400 (≈ 984 µM)	800 (≈ 1970 µM)	800 (≈ 1970 µM)	800 (≈ 1970 µM)	400 (≈ 984 µM)	800 (≈ 1970 µM)	400 (≈ 984 µM)	800 (≈ 1970 µM)
Cc1nc(SCC(=O)c2ccc(Cl)cc2)n(Nc2ccc(Cl)cc2)c1C	800 (≈ 1970 µM)	800 (≈ 1970 µM)	800 (≈ 1970 µM)	400 (≈ 984 µM)	800 (≈ 1970 µM)	800 (≈ 1970 µM)	800 (≈ 1970 µM)	800 (≈ 1970 µM)	800 (≈ 1970 µM)	800 (≈ 1970 µM)	400 (≈ 984 µM)
Cc1nc(SCC(=O)c2ccc(Cl)c(Cl)c2)n(Nc2ccc(Cl)cc2)c1C	800 (≈ 1810 µM)	200 (≈ 454 µM)	800 (≈ 1810 µM)	400 (≈ 907 µM)	800 (≈ 1810 µM)	200 (≈ 454 µM)	800 (≈ 1810 µM)	50 (≈ 113 µM)	800 (≈ 1810 µM)	400 (≈ 907 µM)	400 (≈ 907 µM)
COc1ccc(Nn2c(SCC(=O)c3ccc(Cl)c(Cl)c3)nc(C)c2C)cc1	800 (≈ 1830 µM)	800 (≈ 1830 µM)	800 (≈ 1830 µM)	400 (≈ 917 µM)	400 (≈ 917 µM)	800 (≈ 1830 µM)	800 (≈ 1830 µM)	400 (≈ 917 µM)	800 (≈ 1830 µM)	800 (≈ 1830 µM)	800 (≈ 1830 µM)
Cc1nc(SCC(=O)c2ccccc2)n(Nc2ccc(Cl)cc2)c1C	800 (≈ 2150 µM)	400 (≈ 1080 µM)	800 (≈ 2150 µM)	400 (≈ 1080 µM)	800 (≈ 2150 µM)	800 (≈ 2150 µM)	800 (≈ 2150 µM)	200 (≈ 538 µM)	800 (≈ 2150 µM)	800 (≈ 2150 µM)	800 (≈ 2150 µM)
COc1cccc(C(=O)CSc2nc(C)c(C)n2Nc2ccc(Cl)cc2)c1	400 (≈ 995 µM)	1600 (≈ 3980 µM)	800 (≈ 1990 µM)	800 (≈ 1990 µM)	800 (≈ 1990 µM)	800 (≈ 1990 µM)	800 (≈ 1990 µM)	200 (≈ 498 µM)	400 (≈ 995 µM)	800 (≈ 1990 µM)	200 (≈ 498 µM)
COc1ccc(C(=O)CSc2nc(C)c(C)n2Nc2ccc(Cl)cc2)cc1	400 (≈ 995 µM)	1600 (≈ 3980 µM)	400 (≈ 995 µM)	800 (≈ 1990 µM)	800 (≈ 1990 µM)	800 (≈ 1990 µM)	800 (≈ 1990 µM)	200 (≈ 498 µM)	400 (≈ 995 µM)	800 (≈ 1990 µM)	200 (≈ 498 µM)
O=C(N[C@H](CO)[C@H](O)c1ccc([N+](=O)[O-])cc1)C(Cl)Cl [CHLORAMPHENICOL]	100 (≈ 309 µM)	50 (≈ 155 µM)	50 (≈ 155 µM)	50 (≈ 155 µM)	50 (≈ 155 µM)	25 (≈ 77.4 µM)	–	12.5 (≈ 38.7 µM)	50 (≈ 155 µM)	–	–
CC(=O)N1CCN(c2ccc(OCC3COC(Cn4ccnc4)(c4ccc(Cl)cc4Cl)O3)cc2)CC1 (stereo unspecified) [KETOCONAZOLE]	–	–	–	–	–	–	100 (≈ 188 µM)	–	–	100 (≈ 188 µM)	50 (≈ 94.1 µM)
